Tests used:
Type in all cases: cell-based
[1] = tested on: recombinant NL4-3 virus (nef section replaced with Renilla luciferase gene) in MT-2 cells; assay: HIV cell culture assay (antiviral activity, luciferase readout)
Outline: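 Read-out: Renilla luciferase (live-cell substrate) in infected MT-2 cells after 4-5 d with serial compound dilutions. Virus from 293T transfection of the proviral clone, titered by luciferase in MT-2. EC50 via median effect equation fit.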

[2] = tested on: uninfected MT2 cells; assay: Compound cytotoxicity, XTT-based colorimetric assay; conditions: uninfected MT2 cells, day 4, XTT
Outline: (§1)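 CC50 derived from XTT colorimetric signal measured on day 4 in MT2 cells that were not infected. All other steps followed the antiviral assay protocol.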

[3] = as above; conditions: human; uninfected MT2 cells, day 4, XTT; read-out: CC50
Outline: as §1

[4] = Renilla, NL43, MT-2 cells infected for 4-5 days with recombinant NL4-3 Renilla luciferase virus

| Compound | EC50 ([1]; MT-2 cells infected for 4-5 days with recombinant NL4-3 Renilla luciferase virus) [pM] | CC50 [2] [pM] | EC50 [1, 4] [pM] | CC50 at 4 days [3] [pM] |
| --- | --- | --- | --- | --- |
| Cc1cc(C2(F)CCC(F)(F)CC2)nc2nc([C@H](Cc3cc(F)cc(F)c3)NC(=O)Cn3nc(C(F)F)c4c3C(F)(F)[C@@H]3C[C@H]43)n(-c3ccc(Cl)c4c(NS(C)(=O)=O)nn(C[C@@H](C)N5C[C@H](F)C[C@H](F)C5)c34)c(=O)c12 (atropisomer, axis not shown; (P)) [Example 703, N-[(1S)-1-[(3P)-3-{4-chloro-1-[(2S)-2-[(3R,5S)-3,5-difluoropiperidin-1-yl]propyl]-3-methanesulfonamido-1H-indazol-7-yl}-5-methyl-4-oxo-7-(1,4,4-trifluorocyclohexyl)-3H,4H-pyrido[2,3-d]pyrimidin-2-yl]-2-(3,5-difluorophenyl)ethyl]-2-[(2S,4R)-9-(difluoromethyl)-5,5-difluoro-7,8-diazatricyclo[4.3.0.0^2,^4]nona-1(6),8-dien-7-yl]acetamide] | 17 | > 20000 |  |  |
| CS(=O)(=O)Nc1nn(CCN2CC(C(F)F)C2)c2c(-n3c([C@H](Cc4cc(F)cc(F)c4)NC(=O)Cn4nc(C(F)F)c5c4C(F)(F)[C@@H]4C[C@H]54)nc4nc(C5CCC(F)(F)CC5)ccc4c3=O)ccc(Cl)c12 (atropisomer, axis not shown; (P)) [Example 160, N-[(1S)-1-[(3P)-3-(4-chloro-1-{2-[3-(difluoromethyl)azetidin-1-yl]ethyl}-3-methanesulfonamido-1H-indazol-7-yl)-7-(4,4-difluorocyclohexyl)-4-oxo-3H,4H-pyrido[2,3-d]pyrimidin-2-yl]-2-(3,5-difluorophenyl)ethyl]-2-[(2S,4R)-9-(difluoromethyl)-5,5-difluoro-7,8-diazatricyclo[4.3.0.0^2,^4]nona-1(6),8-dien-7-yl]acetamide] |  |  | 23 | > 50000 |
| CC(C)S(=O)(=O)N1CCN(CCn2nc(NS(C)(=O)=O)c3c(Cl)ccc(-n4c([C@H](Cc5cc(F)cc(F)c5)NC(=O)Cn5nc(C(F)F)c6c5C(F)(F)[C@@H]5C[C@H]65)nc5nc(C6CCC(F)(F)CC6)ccc5c4=O)c32)CC1 (atropisomer, axis not shown; (P)) [Example 195, N-[(1S)-1-[(3P)-3-(4-chloro-3-methanesulfonamido-1-{2-[4-(propane-2-sulfonyl)piperazin-1-yl]ethyl}-1H-indazol-7-yl)-7-(4,4-difluorocyclohexyl)-4-oxo-3H,4H-pyrido[2,3-d]pyrimidin-2-yl]-2-(3,5-difluorophenyl)ethyl]-2-[(2S,4R)-9-(difluoromethyl)-5,5-difluoro-7,8-diazatricyclo[4.3.0.0^2,^4]nona-1(6),8-dien-7-yl]acetamide] |  |  | 37 | > 50000 |
| Cc1cc(C2CCC(F)(F)CC2)nc2nc([C@H](Cc3cc(F)cc(F)c3)NC(=O)Cn3nc(C4CC4)c4c3C[C@@H]3C[C@H]43)n(-c3ccc(Cl)c4c(NS(C)(=O)=O)nn(C[C@@H](C)N5C[C@H](F)C[C@H](F)C5)c34)c(=O)c12 (relative stereo) [Example 685, N-[(1S)-1-[(3P)-3-{4-chloro-1-[(2R)-2-[(3R,5S)-3,5-difluoropiperidin-1-yl]propyl]-3-methanesulfonamido-1H-indazol-7-yl}-7-(4,4-difluorocyclohexyl)-5-methyl-4-oxo-3H,4H-pyrido[2,3-d]pyrimidin-2-yl]-2-(3,5-difluorophenyl)ethyl]-2-[(2R*,4R*)-9-cyclopropyl-7,8-diazatricyclo[4.3.0.0^2,^4]nona-1(6),8-dien-7-yl]acetamide] |  |  | 10 | > 20000 |
| CS(=O)(=O)Nc1nn(CCN2C[C@H](F)C[C@H](F)C2)c2c(-n3c([C@H](Cc4cc(F)cc(F)c4)NC(=O)Cn4nc(C(F)F)c5c4C(F)(F)[C@@H]4C[C@H]54)nc4nc(C5CCC(F)(F)CC5)cc(C5CC5)c4c3=O)ccc(Cl)c12 (atropisomer, axis not shown; (P)) [Example 322, N-[(1S)-1-[(3P)-3-(4-chloro-1-{2-[(3R,5S)-3,5-difluoropiperidin-1-yl]ethyl}-3-methanesulfonamido-1H-indazol-7-yl)-5-cyclopropyl-7-(4,4-difluorocyclohexyl)-4-oxo-3H,4H-pyrido[2,3-d]pyrimidin-2-yl]-2-(3,5-difluorophenyl)ethyl]-2-[(2S,4R)-9-(difluoromethyl)-5,5-difluoro-7,8-diazatricyclo[4.3.0.0^2,^4]nona-1(6),8-dien-7-yl]acetamide] |  |  | 9 | > 50000 |
| CS(=O)(=O)Nc1nn(CCN2CCC(C(F)(F)F)C2)c2c(-n3c([C@H](Cc4cc(F)cc(F)c4)NC(=O)Cn4nc(C(F)F)c5c4C(F)(F)[C@@H]4C[C@H]54)nc4nc(C5CCC(F)(F)CC5)ccc4c3=O)ccc(Cl)c12 (stereo partly drawn) [Example 199, N-[(1S)-1-[(3P)-3-(4-chloro-3-methanesulfonamido-1-{2-[3-(trifluoromethyl)pyrrolidin-1-yl]ethyl}-1H-indazol-7-yl)-7-(4,4-difluorocyclohexyl)-4-oxo-3H,4H-pyrido[2,3-d]pyrimidin-2-yl]-2-(3,5-difluorophenyl)ethyl]-2-[(2S,4R)-9-(difluoromethyl)-5,5-difluoro-7,8-diazatricyclo[4.3.0.0^2,^4]nona-1(6),8-dien-7-yl]acetamide] |  |  | 23 | > 50000 |

— patent publication US12594276B2, “Inhibitors of human immunodeficiency virus replication” (ViiV Healthcare UK (No.5) Limited, priority 2024, dated 2026)
